{"source": "patent US20030113913A1", "about": "“Method of enhancing self renewal of stem cells and uses thereof” (PETER MACCALLUM CANCER INSTITUTE, priority 2001, published 2003)", "key": {"[1]": {"system": "lin− c-kit+ Sca-1+ CD45.2+ (LKS) murine hematopoietic precursors", "test": "Serial transplantation of LKS hematopoietic precursors cultured with or without ATRA (congenic mouse model)", "format": "in vivo", "conditions": "for donor repopulating levels of quaternary transplant recipients: CD45.2+ donor cells in peripheral blood, mean ± SEM", "description": "2000 FACS-enriched hematopoietic precursors (lin− c-kit+ Sca-1+) were added to wells containing media and cytokines (SCF, IL-6, IL-11 and Flt-3 ligand), and cultured without (No ATRA) or with (ATRA) 1 umol ATRA. Irradiated primary Ly5.1 recipients (6 mice per group) were transplanted with 100 000 normal Ly5.1 bone marrow cells together with 1000 noncultured (Start) Ly5.2 lin− c-kit+ Sca-1+ cells or with all cells that grew from 1000 of these precursors after 3 (3D) or 7 (7D) days in liquid suspension culture. Subsequent transplants (secondary, tertiary and quaternary) were performed using fractions of bone marrow harvested from the primary, secondary or tertiary, respectively, transplant recipients. Data are expressed as the mean +/− SEM donor cell reconstitution in the peripheral blood of transplanted recipients analyzed at 6 months (primary recipients) or 3 months (secondary, tertiary and quaternary recipients) post-transplant.\nThese studies may be proven using in vivo assays, preferably using small animal models, more preferably using the congenic mouse hematopoietic stem cell transplantation model. This model relies on the use of donor and recipient mice that can be distinguished from each other by the presence of different epitopes for the leukocyte common antigen, which is present on all white blood cells.\nIrradiated CD45.1+ primary murine recipients were transplanted with 1×10^5 normal CD45.1+ bone marrow cells together with 1000 freshly isolated lin− c-kit+ Sca-1+ CD45.2+ (LKS) murine hematopoietic precursors or with all cells that grew from 1000 LKS after 3 or 7 days of culture with or without 1 μM ATRA. Primary recipients were euthanased 6 months post-transplant, their femoral marrows flushed and pooled within treatment groups and bone marrow from 1/10th of a femur of these mice were injected into each secondary irradiated recipient. Subsequent serial transplants were likewise performed at 4 month intervals post-transplant, with the 5th serial transplant currently being assessed. Recipient mice were analysed for multilineage repopulating donor cells (>5% CD45.2+) in each round of transplants."}, "[2]": {"system": "RARβ2", "test": "RT-PCR expression of RARβ2 in LKS+ and LKS− cells cultured with or without ATRA", "format": "cell-based, murine", "conditions": "cells derived from LKS+ and LKS− cultured with 1 μmol ATRA for 3, 7 or 14 days", "description": "FACS-enriched hematopoietic precursors (lin− c-kit+ Sca-1+ or lin− c-kit+ Sca-1−) were added to wells containing media and cytokines (SCF, IL-6, IL-11 and Flt-3 ligand), and cultured without (No ATRA) or with (+ATRA) 1 μmol ATRA for 3, 7 or 14 days. […] LKS+=lin− c-kit+ Sca-1+ cells, LKS−=lin− c-kit+ Sca-1− cells; D=day of culture.\n(§1) Consideration was then given to the expression of the different RARs by progeny derived from lin− c-kit+ Sca-1+ cells (LKS+) or lin− c-kit+ Sca-1− cells (LKS−) after they had been cultured with or without ATRA for 3, 7 and 14 days."}, "[3]": {"system": "RARγ1", "test": "RT-PCR expression of RARγ1 in LKS+ and LKS− cells cultured with or without ATRA", "format": "cell-based, murine", "description": "FACS-enriched hematopoietic precursors (lin− c-kit+ Sca-1+ or lin− c-kit+ Sca-1−) were added to wells containing media and cytokines (SCF, IL-6, IL-11 and Flt-3 ligand), and cultured without (No ATRA) or with (+ATRA) 1 μmol ATRA for 3, 7 or 14 days. After culture, the cells were retrieved, mRNA prepared and expression of RAR γ 1 was analysed by RT-PCR methods. LKS+=lin− c-kit+ Sca-1+ cells, LKS−=lin− c-kit+ Sca-1− cells; D=day of culture.\nas §1"}}}
{"smiles": "CC1=C(/C=C/C(C)=C/C=C/C(C)=C/C(=O)O)C(C)(C)CCC1", "note": "[ATRA, all trans-retinoic acid]", "values": [{"measurement": "donor repopulating levels of quaternary transplant recipients", "setting": "[1]; LKS cultured 3 days with 1 μM ATRA", "value": "20.09±8.63", "unit": "%"}, {"measurement": "donor repopulating levels of quaternary transplant recipients", "setting": "[1]; LKS cultured 7 days with 1 μM ATRA", "value": "14.98±5.94", "unit": "%"}, {"measurement": "multilineage donor reconstituting ability in serial transplant recipients", "setting": "[1]; all serial transplant recipients of 3 day and 7 day ATRA-treated LKS (1 μM)", "value": "significant multilineage donor reconstituting ability"}, {"measurement": "evidence of leukemia in recipient mice", "setting": "[1]; recipients of ATRA-treated LKS, successive rounds of transplants", "value": "nor was there any evidence of leukemia"}, {"measurement": "marrow cellularity of transplanted mice", "setting": "[1]; successive rounds of transplants, all treatment groups compared", "value": "no significant difference in marrow cellularity"}, {"measurement": "RARβ2 expression", "setting": "[2]", "value": "upregulates RARβ2 in cultured cells"}, {"measurement": "RARγ1 expression", "setting": "[3]; LKS+ cells cultured with 1 μmol ATRA for 3, 7 or 14 days", "value": "maintained"}, {"measurement": "RARγ1 expression", "setting": "[3]; LKS− cells cultured with 1 μmol ATRA", "value": "not expressed"}]}
